Measurements: patent US20130131178A1, “USE OF OXALOACETATE IN THE TREATMENT OF ISCHAEMIA” (UNIVERSIDADE DE SANTIAGO DE COMPOSTELA, priority 2010, published 2013)

Columns and labels:
Assay type in all cases: in vivo, male Sprague-Dawley (SD) rats
blood glutamate levels [1] = experiment: Effect of oxaloacetate on blood glutamate levels in an animal model of focal ischaemia (MCAO); conditions: 3.5 mg/100 g IV 90 minutes post-occlusion, 4 hours post-occlusion
Procedure: The oxaloacetate used (Sigma-Aldrich, Ref, 171263, 95%) was dissolved in saline solution to a concentration of 10 mg/mL and the pH adjusted to 7.4. As the average weight of the experimental animals was 325 g and the dose administered was 3.5 mg/100 g body weight, each animal received an average volume of 1.2 mL of 10 mg/mL oxaloacetate.
(§1) The study protocols for male Sprague-Dawley (SD) rats (Charles River Laboratories; France) weighing between 300 and 350 g were approved by the Animal Use and Care Committee at the Hospital de Santiago de Compostela.
Anaesthesia was induced by inhalation of 5% sevoflurane in a mixture of nitrous oxide and oxygen (70/30). A rectal temperature of 37.5° C. was maintained. Glucose levels (180-220 mg/dL) were analysed prior to the intervention. […]
(§2) Aspartate and glutamate levels in blood were analysed according to the method described in the following reference (White, J. A., R. J. Hart, and J. C. Fry, An evaluation of the Waters Pico-Tag system for the amino-acid analysis of food materials. J Automat Chem, 1986. 8(4): p. 170-7).
Two groups were designed: an MCAO group treated with saline (control group) and an MCAO group treated with 3.5 mg/100 g oxaloacetate IV 90 minutes post-occlusion. The blood glutamate levels and infarct and oedema volumes were determined in both groups. […]

[2] = test system: Middle cerebral artery occlusion (MCAO) model of cerebral ischaemia; experiment: Infarct and oedema volumes by magnetic resonance imaging in the MCAO model of cerebral ischaemia; conditions: 3.5 mg/100 g IV 90 minutes post-occlusion
Procedure: The oxaloacetate used (Sigma-Aldrich, Ref, 171263, 95%) was dissolved in saline solution to a concentration of 10 mg/mL and the pH adjusted to 7.4. As the average weight of the experimental animals was 325 g and the dose administered was 3.5 mg/100 g body weight, each animal received an average volume of 1.2 mL of 10 mg/mL oxaloacetate. The study protocols for male Sprague-Dawley (SD) rats (Charles River Laboratories; France) weighing between 300 and 350 g were approved by the Animal Use and Care Committee at the Hospital de Santiago de Compostela. Anaesthesia was induced by inhalation of 5% sevoflurane in a mixture of nitrous oxide and oxygen (70/30). A rectal temperature of 37.5° C. was maintained. Glucose levels (180-220 mg/dL) were analysed prior to the intervention. Middle cerebral artery occlusion (MCAO) was used as a model of cerebral ischaemia, as described in the literature (Longa, E. Z., et al., Reversible middle cerebral artery occlusion without craniectomy in rats. Stroke, 1989. 20(1): p. 84-91). […] The infarct and oedema volumes were determined by magnetic resonance imaging. […] The blood glutamate levels and infarct and oedema volumes were determined in both groups. […]

blood glutamate levels [3] = experiment: Effect of oxaloacetate administration on blood glutamate and aspartate levels in healthy animals; design: effect on glutamate levels: dose or concentration left out as unconfirmed
Procedure: The oxaloacetate used (Sigma-Aldrich, Ref, 171263, 95%) was dissolved in saline solution to a concentration of 10 mg/mL and the pH adjusted to 7.4. […]
as §1
Anaesthesia was induced by inhalation of 5% sevoflurane in a mixture of nitrous oxide and oxygen (70/30). A rectal temperature of 37.5° C. was maintained. Glucose levels (180-220 mg/dL) were analysed prior to the intervention.
as §2
Likewise, no changes in aspartate levels were observed (FIG. 1b).
This increase in aspartate levels confirms that glutamate is being metabolised by the enzyme GOT as a result of oxaloacetate treatment.
The […] and aspartate levels in blood were established in a control group treated with saline.

Compound: O=C(O)CC(=O)C(=O)O [oxaloacetate]
- drop of blood glutamate levels below basal levels (blood glutamate levels [1]): 50%
- infarct volume smaller than in the control group ([2]; 24 hours post-ischaemia): approximately 40%
- decrease of infarct volume ([2]; at 7 days): 80%
- effect on glutamate levels (blood glutamate levels [3]; administration via bolus (IV)): no effect
- decrease in serum glutamate levels with respect to basal levels (blood glutamate levels [3]; healthy animals, 3.5 mg/100 g IV, two hours post-administration): 60%
